Data on 20 molecules can be found in patent publication EP4029501A1, “COMBINATION OF POLYAROMATIC UREA DERIVATIVES AND GLUCOCORTICOID OR HDAC INHIBITOR FOR THE TREATMENT OF DISEASES OR CONDITIONS ASSOCIATED WITH MUSCLE CELLS AND/OR SATELLITE CELLS” (Anagenesis Biotechnologies, priority 2021, dated 2022).

By Emax is commonly meant the greatest response seen or fitted, relative to the assay's reference. Usually pEC50 stands for −log10 of the EC50, conventionally taken in molar units.

This experiment concerns muscle progenitors derived from DMD hiPSC. Put plainly: Myotube assay: total myotube area per well (alpha-actinin staining). It is filed as cell-based, human. Particulars: Homo sapiens, Myotube, 72 h, DMD or WT cell source not given; for Emax: efficacy, MA = normalized Myotube Area, 3 days incubation; for pEC50: myogenic activity, half-maximal generation of myotubes, 10 points dose-response 1.5 nM to 30 µM, 3 days. The procedure, abridged: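 DMD hiPSC-derived muscle progenitors (NCRM-1 background) plated at 3500 cells/well in K5 medium with 5 µM Y-27632, then exposed to compound at 1.5 nM–30 µM for 3 days at 37°C. Cells fixed on day 7, alpha-actinin-immunostained and total myotube area per well quantified; duplicates averaged, EC50 and normalized myotube area derived.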

pEC50: −log10 of the molar value.

The molecule `CSc1cc(Oc2ccnc(C(=O)Nc3ccccc3)c2)ccc1NC(=O)Nc1cc(C(C)(C)C)nn1-c1ccccc1` [(co), 4-(4-(3-(3-(tert-butyl)-1-phenyl-1H-pyrazol-5-yl)ureido)-3-(methylthio)phenoxy)-N-phenylpicolinamide] gave an Emax of 25 to 50% and a pEC50 of at most 5.30.
For `CC(C)(C)c1cc(NC(=O)Nc2ccc(Oc3ccnc4[nH]c(=O)cnc34)c(OC(F)(F)F)c2)n(-c2ccccc2)n1` [(cp), 1-(3-(tert-butyl)-1-phenyl-1H-pyrazol-5-yl)-3-(4-((3-oxo-3,4-dihydropyrido[2,3-b]pyrazin-8-yl)oxy)-3-(trifluoromethoxy)phenyl)urea], in that order: 50 to 75% and 6.00 to 6.30.
The like results for `CC(C)(C)c1cc(NC(=O)Nc2cc(Oc3ccnc4[nH]c(=O)cnc34)ccc2F)n(-c2ccccc2)n1` [(cq), 1-(3-(tert-butyl)-1-phenyl-1 H-pyrazol-5-yl)-3-(2-fluoro-5-((3-oxo-3,4-dihydropyrido[2,3-b]pyrazin-8-yl)oxy)phenyl)urea] were, in that order, at least 75% and 6.00 to 6.30.
The like results for `CSc1cc(Oc2ccnc3[nH]c(=O)cnc23)ccc1NC(=O)Nc1cc(C(C)(C)C)nn1-c1ccc(OCCCN(C)C)cc1` [(cr), 1-(3-(tert-butyl)-1-(4-(3-(dimethylamino)propoxy)phenyl)-1H-pyrazol-5-yl)-3-(2-(methylthio)-4-((3-oxo-3,4-dihydropyrido[2,3-b]pyrazin-8-yl)oxy)phenyl)urea] were, in that order, at least 75% and above 6.30.
For `CC(C)(C)c1cc(NC(=O)Nc2ccc(C(=O)c3ccncc3)cc2)n(-c2ccccc2)n1` [(cs), 1-(3-(tert-butyl)-1-phenyl-1 H-pyrazol-5-yl)-3-(4-isonicotinoylphenyl)urea], the Emax lay within 25 to 50% and the pEC50 is at most 5.30.
The like results for `CSc1cc(Oc2ccnc3c2OCC(=O)N3)ccc1NC(=O)Nc1cc(C(C)(C)C)nn1-c1ccccc1` [(ct), 1-(3-(tert-butyl)-1-phenyl-1H-pyrazol-5-yl)-3-(2-(methylthio)-4-((3-oxo-3,4-dihydro-2H-pyrido[3,2-b][1,4]oxazin-8-yl)oxy)phenyl)urea] were, in that order, at least 75% and above 6.30.
As to `CC(C)(C)c1cnc(NC(=O)Nc2ccc(Oc3ccnc4c3CCC(=O)N4)c3ccccc23)s1` [(cu), 1-(5-(tert-butyl)thiazol-2-yl)-3-(4-((7-oxo-5,6,7,8-tetrahydro-1,8-naphthyridin-4-yl)oxy)naphthalen-1-yl)urea], the Emax is at least 75% and the pEC50 was above 6.30.
The like results for `CCOC(=O)Nc1cc(Oc2ccc(NC(=O)Nc3cc(C(C)(C)C)nn3-c3ccccc3)c(SC)c2)ccn1` [(cv), ethyl (4-(4-(3-(3-(tert-butyl)-1-phenyl-1H-pyrazol-5-yl)ureido)-3-(methylthio)phenoxy)pyridin-2-yl)carbamate] were, in that order, at least 75% and above 6.30.
The like results for `CC(C)(C)c1cc(NC(=O)Nc2cccc(Oc3ccnc4[nH]c(=O)cnc34)c2F)n(-c2ccccc2)n1` [(cw), 1-(3-(tert-butyl)-1-phenyl-1 H-pyrazol-5-yl)-3-(2-fluoro-3-((3-oxo-3,4-dihydropyrido[2,3-b]pyrazin-8-yl)oxy)phenyl)urea] were, in that order, at least 75% and at most 5.30.
In turn, `CSc1cc(Oc2ccnc(NC(=O)OCc3ccccc3)c2)ccc1NC(=O)Nc1cc(C(C)(C)C)nn1-c1ccccc1` [(cx), benzyl (4-(4-(3-(3-(tert-butyl)-1-phenyl-1H-pyrazol-5-yl)ureido)-3-(methylthio)phenoxy)pyridin-2-yl)carbamate] showed an Emax of at least 75% and a pEC50 of 6.00 to 6.30.
For `CSc1cc(Oc2ccnc3c2OCCN3)ccc1NC(=O)Nc1cc(C(C)(C)C)nn1-c1ccccc1` [(cy), 1-(3-(tert-butyl)-1-phenyl-1H-pyrazol-5-yl)-3-(4-((3,4-dihydro-2H-pyrido[3,2-b][1,4]oxazin-8-yl)oxy)-2-(methylthio)phenyl)urea], in that order: at least 75% and 6.00 to 6.30.
The like results for `CSc1cc(Oc2ccnc3c2CCC(=O)N3)ccc1NC(=O)Nc1cc(C(C)(C)C)no1` [(cz), 1-(3-(tert-butyl)isoxazol-5-yl)-3-(2-(methylthio)-4-((7-oxo-5,6,7,8-tetrahydro-1,8-naphthyridin-4-yl)oxy)phenyl)urea] were, in that order, at least 75% and 6.00 to 6.30.
Take `O=C(Nc1ccc(Oc2ccnc3[nH]c(=O)cnc23)cc1F)Nc1cc(C2(C(F)(F)F)CC2)nn1-c1ccccc1` [(d), 1-(2-fluoro-4-((3-oxo-3,4-dihydropyrido[2,3-b]pyrazin-8-yl)oxy)phenyl)-3-(1-phenyl-3-(1-(trifluoromethyl)cyclopropyl)-1 H-pyrazol-5-yl)urea]: the Emax fell in the range of 50 to 75% and the pEC50 is 5.30 to 6.00.
The like results for `CCOC(=O)Nc1cc(Oc2ccc(NC(=O)Nc3cc(C(C)(C)C)nn3-c3ccccc3)c3ccccc23)ccn1` [(da), ethyl (4-((4-(3-(3-(tert-butyl)-1-phenyl-1 H-pyrazol-5-yl)ureido)naphthalen-1-yl)oxy)pyridin-2-yl)carbamate] were, in that order, at least 75% and above 6.30.
The like results for `CCOC(=O)Nc1cc(Oc2ccc(NC(=O)Nc3cc(C(C)(C)C)no3)c3ccccc23)ccn1` [(db), ethyl (4-((4-(3-(3-(tert-butyl)isoxazol-5-yl)ureido)naphthalen-1-yl)oxy)pyridin-2-yl)carbamate] were, in that order, at least 75% and above 6.30.
The like results for `CCOC(=O)Nc1cc(Oc2ccc(NC(=O)Nc3ncc(C(C)(C)C)s3)c3ccccc23)ccn1` [(dc), ethyl (4-((4-(3-(5-(tert-butyl)thiazol-2-yl)ureido)naphthalen-1-yl)oxy)pyridin-2-yl)carbamate] were, in that order, at least 75% and above 6.30.
`CSc1cc(Oc2ccnc3[nH]c(=O)cnc23)ccc1NC(=O)Nc1cc(C(C)(C)C)nn1-c1ccc(CN2CCOCC2)cc1` [(dd), 1-(3-(tert-butyl)-1-(4-(morpholinomethyl)phenyl)-1 H-pyrazol-5-yl)-3-(2-(methylthio)-4-((3-oxo-3,4-dihydropyrido[2,3-b]pyrazin-8-yl)oxy)phenyl)urea] showed an Emax of at least 75% and a pEC50 above 6.30.
The like results for `CCOC(=O)Nc1cc(Oc2ccc(NC(=O)Nc3cc(C(C)(C)C)no3)c(SC)c2)ccn1` [(de), ethyl (4-(4-(3-(3-(tert-butyl)isoxazol-5-yl)ureido)-3-(methylthio)phenoxy)pyridin-2-yl)carbamate] were, in that order, at least 75% and above 6.30.
The like results for `CCOC(=O)Nc1cc(Oc2ccc(NC(=O)Nc3ncc(C(C)(C)C)s3)c(SC)c2)ccn1` [(df), ethyl (4-(4-(3-(5-(tert-butyl)thiazol-2-yl)ureido)-3-(methylthio)phenoxy)pyridin-2-yl)carbamate] were, in that order, at least 75% and above 6.30.
For `CC(C)(C)c1cc(NC(=O)Nc2ccc(Oc3ccnc4c3CCC(=O)N4)c3ccccc23)on1` [(dg), 1-(3-(tert-butyl)isoxazol-5-yl)-3-(4-((7-oxo-5,6,7,8-tetrahydro-1,8-naphthyridin-4-yl)oxy)naphthalen-1-yl)urea], in that order: at least 75% and above 6.30.
